Test [1] deals with T1, Full length DGKζ (in-house protein M1-V929) (Homo sapiens, UniProt Q13574).
T1 construct: His (N); TEV site (N); made in house; host or cells: Sf9 insect cells (Bac-to-Bac baculovirus)
The test can be described thus: Biochemical DGK IC50 assay (ADP-Glo, lipid micelle substrate), DGKζ. The settings on record: 1 hour preincubation, 1 hour reaction, room temperature. The procedure:
(§1) Enzymatic reactions of DGKζ, DGKα and DGKδ were performed using ADP-Glo assay with lipid micelle substrate. […] Full length DGKα (D21-10BG, SignalChem) and full length DGKδ (D23-10G, SignalChem) were purchased. Lipid micelle was prepared by dissolving DAG (Sigma, 317505-10 MG) and PS (Sigma, P7769-100 MG) with chloroform which was furtherly removed by rotary evaporation. The obtained residue was resuspended in buffer containing 25 mM HEPES pH 7.0, 0.5 mM EDTA and 160 mM Octyl β-D glucopyranoside by vigorous mixing and ultrasonic (IID, Scientz).
(§2) The inhibition activities testing for the compound disclosed herein were carried out at room temperature in assay buffer containing 50 mM HEPES, 10 mM MgCl2, 0.01% BSA, 0.1 mM Na3VO4, 0.005% Tween-20 and 0.01 mM CaCl2). Compounds in DMSO were dispensed into wells of a black 384 well plate (Corning 4514) using D300e digital dispenser (Tecan). […] 3 μL 2× enzyme solution was added to wells. […] After 1 hour reaction, 5 μL ADP-Glo reagent (Promga V9101) was added and incubated for 40 minutes. 10 μL Kinase Detection reagent was added and incubated for 30 minutes. Luminescence was measured on a microplate reader (PHERAstar FSX, BMG labtech). The IC50S are calculated based on inhibition of enzyme activity in the presence of increasing concentrations of compounds.
Human His-TEV-DGK-zeta-pFastBac1 and human baculovirus samples was generated using the Bac- to -Bac baculovirus expression system (Invitrogen) according to the manufacturer's protocol. The DNA used for expression of DGK-zeta, have SEQ ID Nos: 1. Baculovirus amplification was achieved using infected SF9 cells at 1:2000 virus/cells ratios, and grown for 96 hours at 27° C. post-transfected.
The expression scaled up for each protein was carried out in the […] from CORNING. 4 L of 3×10^6 cells/mL Sf9 cells (Expression System, Invitrogen) grown in SF900™ II SFM insect medium (Expression System) was infected with virus stock at 1:200 virus/cells ratio, and grown for 48 hours at 27° C. post-transfection. The infected cell culture was harvested by centrifugation at 6000 rpm for 15 min 4° C. in a SORVALL LYNX6000 centrifuge. The cell pellets were stored at −80° C.
Full length human DGKζ produced as described above, was purified from Sf9 baculovirus-infected insect cell paste. The cells were lysed using sonication method, and the lysates were clarified by centrifugation.

The target of test [2] is T2, Full length DGKα (D21-10BG, SignalChem) (Homo sapiens, UniProt P23743).
T2 construct: Full length DGKα (D21-10BG, SignalChem); purchased SignalChem D21-10BG
Put plainly: Biochemical DGK IC50 assay (ADP-Glo, lipid micelle substrate), DGKα. To be noted: 1 hour preincubation, 1 hour reaction, room temperature. The procedure: as §1, §2
For orientation: ADP-Glo first removes unused ATP, then detects ADP through luciferase.

Molecules are shown by their SMILES. pIC50: −log10 of the molar value.

T1 sequence (Q13574 1-929 isoform Q13574-4): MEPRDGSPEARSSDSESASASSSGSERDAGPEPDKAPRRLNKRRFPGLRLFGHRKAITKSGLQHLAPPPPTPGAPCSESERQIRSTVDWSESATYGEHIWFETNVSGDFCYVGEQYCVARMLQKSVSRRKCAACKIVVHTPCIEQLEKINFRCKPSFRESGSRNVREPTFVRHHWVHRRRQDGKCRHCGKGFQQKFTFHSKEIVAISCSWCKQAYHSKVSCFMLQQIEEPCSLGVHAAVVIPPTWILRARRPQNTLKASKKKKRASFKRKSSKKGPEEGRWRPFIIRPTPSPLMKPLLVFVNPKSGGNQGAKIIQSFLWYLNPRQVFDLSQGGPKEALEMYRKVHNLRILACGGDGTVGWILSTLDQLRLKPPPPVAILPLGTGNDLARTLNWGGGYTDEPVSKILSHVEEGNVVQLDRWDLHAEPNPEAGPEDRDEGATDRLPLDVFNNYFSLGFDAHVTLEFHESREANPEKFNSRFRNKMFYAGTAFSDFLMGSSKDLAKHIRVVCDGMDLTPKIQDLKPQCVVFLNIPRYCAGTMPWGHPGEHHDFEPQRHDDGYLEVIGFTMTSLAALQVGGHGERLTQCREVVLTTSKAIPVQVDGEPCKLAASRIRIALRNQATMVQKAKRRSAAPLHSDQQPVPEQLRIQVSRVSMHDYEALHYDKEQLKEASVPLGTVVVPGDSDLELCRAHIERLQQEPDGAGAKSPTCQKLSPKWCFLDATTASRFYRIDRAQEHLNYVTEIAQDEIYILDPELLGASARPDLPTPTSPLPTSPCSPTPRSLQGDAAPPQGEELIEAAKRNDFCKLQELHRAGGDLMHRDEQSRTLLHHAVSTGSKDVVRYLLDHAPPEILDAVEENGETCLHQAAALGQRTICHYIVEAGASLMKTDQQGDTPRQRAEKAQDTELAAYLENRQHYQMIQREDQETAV
T2 sequence (P23743 whole entry): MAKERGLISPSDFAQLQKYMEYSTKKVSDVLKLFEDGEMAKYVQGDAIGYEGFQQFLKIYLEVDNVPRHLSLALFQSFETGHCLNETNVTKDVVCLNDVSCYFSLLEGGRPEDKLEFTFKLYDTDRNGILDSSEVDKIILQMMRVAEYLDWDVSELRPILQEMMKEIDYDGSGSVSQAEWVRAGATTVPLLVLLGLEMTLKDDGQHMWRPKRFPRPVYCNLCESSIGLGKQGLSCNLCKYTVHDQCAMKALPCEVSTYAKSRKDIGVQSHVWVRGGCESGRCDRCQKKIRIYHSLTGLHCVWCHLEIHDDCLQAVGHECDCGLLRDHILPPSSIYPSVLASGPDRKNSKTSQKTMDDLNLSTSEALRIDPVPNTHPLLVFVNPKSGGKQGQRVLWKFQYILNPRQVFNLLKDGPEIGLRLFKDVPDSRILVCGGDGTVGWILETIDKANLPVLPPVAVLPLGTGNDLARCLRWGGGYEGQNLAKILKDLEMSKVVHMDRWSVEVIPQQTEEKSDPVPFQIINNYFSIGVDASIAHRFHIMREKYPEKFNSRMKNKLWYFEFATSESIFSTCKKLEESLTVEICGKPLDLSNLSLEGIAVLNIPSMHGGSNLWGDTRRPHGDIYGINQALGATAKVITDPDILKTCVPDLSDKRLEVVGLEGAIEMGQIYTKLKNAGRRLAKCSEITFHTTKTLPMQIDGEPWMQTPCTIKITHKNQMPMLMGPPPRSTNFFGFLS

With `CC[C@H]1CN(C(C)c2ccc3c(c2)OC(C)(C)CO3)[C@H](CC)CN1c1nc(=O)n(C)c2c1nc(CC#N)n2C` (single isomer, unassigned) [Compound A64a], the negative-log IC50 (pIC50) (in general, the negative decadic logarithm of the IC50, by convention in mol/L) was 9.06 in test [1] and 5.28 in test [2].

For `CC[C@H]1CN(C(C)c2ccc3ncc(C)nc3c2)[C@H](CC)CN1c1nc(=O)n(C)c2c1nc(CC#N)n2C` (single isomer, unassigned) [Compound A51a], the results for the pIC50 in test [1] and in test [2] were 8.52 and 4.85, respectively.

In the case of `CCn1c(CC#N)nc2c(N3C[C@@H](C)N(C(C)c4ccc5sc(C)nc5c4)C[C@@H]3C)nc(=O)n(C)c21` (stereo partly drawn) [Compound A55, 2-(6-((2S,5R)-2,5-dimethyl-4-(1-(2-methylbenzo[d]thiazol-5-yl)ethyl)piperazin-1-yl)-9-ethyl-3-methyl-2-oxo-3,9-dihydro-2H-purin-8-yl)acetonitrile], the figures for the negative logarithm of the IC50 (pIC50) in test [1] and in test [2] were 7.51 and 4.16, respectively.

For the compound `CC(OC(F)F)c1cc(F)ccc1C(C)N1C[C@H](C)N(c2nc(=O)n(C)c3c2nc(CC#N)n3C)C[C@H]1C` (single isomer, unassigned) [Compound A29b], the negative logarithm of the IC50 (pIC50) in test [1] was 8.40; in test [2], 3.87.

As for `CCn1c(CC#N)nc2c(N3C[C@@H](C)N(C(C)c4ccc5sc(C(C)C)nc5c4)C[C@@H]3C)nc(=O)n(C)c21` (stereo partly drawn) [Compound A96, 2-(9-ethyl-6-((2S,5R)-4-(1-(2-isopropylbenzo[d]thiazol-5-yl)ethyl)-2,5-dimethylpiperazin-1-yl)-3-methyl-2-oxo-3,9-dihydro-2H-purin-8-yl)acetonitrile], the pIC50 in test [1] is 7.20; in test [2], 4.30.

In the case of `CC[C@@H]1CN(c2nc(=O)n(C)c3c2nc(CC#N)n3CC)[C@@H](C)CN1C(C)c1ccc2c(n1)OC(C)(C)CO2` (single isomer, unassigned) [Compound A158b], the pIC50 was 6.39 in test [1] and < 3.82 in test [2].

`CC(c1ccc2nccnc2c1)N1C[C@H](C)N(c2c(F)c(=O)n(C)c3c2nc(CC#N)n3C)C[C@H]1C` (single isomer, unassigned) [Compound A22a]: the pIC50 in test [1] was 7.59; in test [2], < 5.00.

For the compound `CCn1c(=O)nc(N2C[C@@H](C)N(C(C)c3ccc4c(c3)OC(C)(C)CO4)C[C@@H]2C)c2nc(CC#N)n(C)c21` (single isomer, unassigned) [Compound A61b], the pIC50 in test [1] was 6.38; in test [2], 4.42.

Consider `CCn1c(CC#N)nc2c(N3C[C@@H](C)N(C(C)c4cccc(C(F)(F)F)c4)C[C@@H]3C)nc(=O)n(C)c21` (mixture of isomers) [Compound A42, 2-(6-((2S,5R)-2,5-dimethyl-4-(1-(3-(trifluoromethyl)phenyl)ethyl)piperazin-1-yl)-9-ethyl-3-methyl-2-oxo-3,9-dihydro-2H-purin-8-yl)acetonitrile], for which the figures for the negative logarithm of the IC50 (pIC50) in test [1] and in test [2] were 7.38 and 4.21, respectively.

In the case of `CCn1c(CC#N)nc2c(N3C[C@@H](C)N(C(C)c4ccc5c(c4)OC(F)(F)O5)C[C@@H]3C)nc(=O)n(C)c21` (single isomer, unassigned) [Compound A99b], the negative-log IC50 (pIC50) in test [1] was 6.27; in test [2], 4.33.

With `CC[C@H]1CN(C(C)c2ccc3c(c2)OC(C)(C)CO3)[C@H](CC)CN1c1nc(=O)n(C)c2c1nc(CC#N)n2CC` (stereo partly drawn) [Compound A67, 2-(6-((2S,5R)-4-(1-(3,3-dimethyl-2,3-dihydrobenzo[b][1,4]dioxin-6-yl)ethyl)-2,5-diethylpiperazin-1-yl)-9-ethyl-3-methyl-2-oxo-3,9-dihydro-2H-purin-8-yl)acetonitrile], the results for the pIC50 in test [1] and in test [2] were 8.00 and 3.93, respectively.

As for `Cc1ccc(C(C)N2C[C@H](C)N(c3c(F)c(=O)n(C)c4c3nc(CC#N)n4C)C[C@H]2C)c(C(F)(F)F)c1` (single isomer, unassigned) [Compound A15b], the negative logarithm of the IC50 (pIC50) was 6.54 in test [1] and < 5.00 in test [2].

For the origin of these results see US20260125378A2, “Heterocyclic Compounds” (BeOne Medicines I GmbH, priority 2023, published 2026).
